Measurements: patent US20150065567A1, “1-PHENYLALKANECARBOXYLIC ACID DERIVATIVES FOR THE TREATMENT OF ALZHEIMER'S DISEASE AND MULTIPLE SCLEROSIS” (Chiesi Farmaceutici S.p.A., priority 2013, published 2015)
Like-named read-outs stand apart in the source and are kept apart here.

Columns and labels:
NICD-responsive genes = settings: at 100 μM; cited from earlier work
[1] = rats; cited from earlier work
TNFα = settings: healthy subjects, short-term administration; cited from earlier work
[2] = system: transgenic mouse models of AD; settings: cited from earlier work
[3] = system: Notch intracellular cleavage in human embryonic kidney 293swe cells; settings: at 5 μM, HEK 293swe cells; cited from earlier work
[4] = dogs, cited from earlier work
COX-1 = COX-1 (Homo sapiens, UniProt P23219); settings: concentrations up to 100 μM; cited from earlier work
Chain of COX-1 (P23219 24-599): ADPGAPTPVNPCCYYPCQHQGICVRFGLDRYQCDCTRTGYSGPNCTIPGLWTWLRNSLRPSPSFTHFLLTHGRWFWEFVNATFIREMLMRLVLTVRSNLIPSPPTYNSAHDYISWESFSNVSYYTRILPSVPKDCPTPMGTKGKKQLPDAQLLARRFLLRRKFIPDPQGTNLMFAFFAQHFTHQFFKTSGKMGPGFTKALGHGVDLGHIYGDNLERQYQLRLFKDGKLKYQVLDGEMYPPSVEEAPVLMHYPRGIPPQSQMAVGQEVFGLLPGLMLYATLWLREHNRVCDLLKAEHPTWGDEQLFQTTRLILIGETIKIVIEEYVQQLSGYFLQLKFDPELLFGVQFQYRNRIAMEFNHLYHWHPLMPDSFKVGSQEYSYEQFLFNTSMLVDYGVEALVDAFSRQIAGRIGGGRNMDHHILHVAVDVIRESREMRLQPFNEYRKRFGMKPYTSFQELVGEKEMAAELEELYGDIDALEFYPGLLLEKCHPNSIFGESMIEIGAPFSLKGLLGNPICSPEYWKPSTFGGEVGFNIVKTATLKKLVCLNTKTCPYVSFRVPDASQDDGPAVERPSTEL

[5] = system: Aβ42 secretion in human neuroglioma cells over-expressing the Swedish mutated APP (H4swe); settings: read-out: IC50 for lowering Aβ42 secretion; cited from earlier work
[6] = guinea-pigs, cited from earlier work
COX-2 = target: T1, COX-2 (Homo sapiens, UniProt P35354); settings: concentrations up to 300 μM; cited from earlier work
T1 sequence (P35354 18-604): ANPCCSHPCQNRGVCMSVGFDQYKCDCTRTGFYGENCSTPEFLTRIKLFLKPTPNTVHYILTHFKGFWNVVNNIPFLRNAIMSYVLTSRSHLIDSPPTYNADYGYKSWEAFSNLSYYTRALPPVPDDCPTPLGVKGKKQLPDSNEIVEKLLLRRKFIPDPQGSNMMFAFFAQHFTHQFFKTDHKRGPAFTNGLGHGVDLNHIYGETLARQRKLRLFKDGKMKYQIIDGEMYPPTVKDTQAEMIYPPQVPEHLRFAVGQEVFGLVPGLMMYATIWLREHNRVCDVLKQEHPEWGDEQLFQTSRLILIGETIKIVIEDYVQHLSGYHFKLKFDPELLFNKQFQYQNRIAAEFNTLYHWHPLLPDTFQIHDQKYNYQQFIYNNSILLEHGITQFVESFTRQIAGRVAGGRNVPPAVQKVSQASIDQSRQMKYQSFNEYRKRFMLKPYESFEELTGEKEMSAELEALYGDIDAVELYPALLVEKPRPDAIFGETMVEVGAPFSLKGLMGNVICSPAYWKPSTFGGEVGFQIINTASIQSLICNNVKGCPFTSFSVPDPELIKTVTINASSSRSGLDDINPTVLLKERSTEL

[7] = system: astrocyte-microglia co-culture (mixed glial cell culture) exposed to Aβ1-42; experiment: M1/M2 marker mRNA expression (RT-qPCR) in mixed glial culture exposed to Aβ1-42; assay type: cell-based, C57BL/6 mice
Protocol: C57BL/6 mice are purchased from Charles River. Mixed glial cell cultures were prepared from the brains of 1-3 day newborn mice. Briefly, after carefully removing meninges and large blood vessels, the brains were pooled and then dissociated by manual dispersion with a fire-polished Pasteur pipette. The cells were allowed to attach and grow at 37° C. in DMEM supplemented with 10% fetal bovine serum (FBS) (Euroclone), 4 mM L-glutamine, 200 U/ml penicillin/streptomycin in a water saturated atmosphere containing 5% CO2 for two week.
Soluble Aβ 1-42 were dissolved in sterile water to a final concentration of 2.5 mM, divided into aliquots and frozen. For experiments, mixed glial cells were incubated with soluble (not aggregated) Aβ 1-42, added at a concentration of 10 μM, in presence of CHF5074 (solved in 0.2% DMSO) or vehicle. Incubation was carried out for different times (from 1 to 8 days) in a Neurobasal/B27 medium. At the end of these periods, neuronal cell death by necrosis was evaluated by measuring the amount of lactate dehydrogenase (LDH) released into the culture medium using the CytoTox 96-non-radioactive cytotoxicity assay (Promega).
Total RNA was purified from cultured cells using the RNeasy Mini Kit for total RNA extractions (Qiagen). RNA was reverse transcribed using the Quantitect® Reverse Transcription Kit (Qiagen) with optimized mix of oligo-dT and random primers as primer and 1 μg of total RNA from mixed primary culture or co-culture. The reverse transcription reaction were performed in a total volume of 20 μL containing 5×RT-Buffer (that included dNTPs and Mg^2+), 50 U RT (Reverse trascriptase), 20 U RNase Inhibitor in RNAse-DNase free water for 10 min at 25° C., 2 h at 37° C. and 10 min at 85° C. Individual 25 μL SYBR Green real-time PCR reactions consisted of 2 μL of cDNA, 12.5 μL of 2× iQ™ SYBR Green Supermix (Bio-Rad), and 1.5 μL of each 10 μM optimized forward and reverse primers in 7.5 μL RNase-free water.
The PCR were performed on a Bio-Rad iCycler Detection System using a 3-stage program: 3 min at 50° C., 10 min at 95° C. and 40 cycles of 30 sec at 94° C. and 45 secat 60° C. For standardization of quantification, β-actin were amplified simultaneously. Sets of primer were designed to amplify by Real-time RT-PCR (q-RT-PCR) and RT-PCR genes expressed by classically activated (M1) microglia: • TNFα (Tumor Necrosis Factor α); • IL-1β (Interleukin1β); • iNOS (inducible Nitric Oxide Sinthase); and by alternatively activated (M2) microglia: • ARG1 (Arginase 1); • MRC1 (C-type mannose receptor 1); • TREM2 (Triggering Receptor Expressed on Myeloid cells-2). Primer3plus was used as primer designing tool and then checked the oligos (synthetized by Invitrogen) to verify melting temperatures and quality of the sequences.
Data were analyzed with Student's t-test for independent data. P<0.05 was considered as significant.
The effect of CHF5074 on the inflammatory response induced by Aβ was examined. Mixed astrocyte-microglia co-cultures were exposed to Aβ with or without CHF5074 at 3 μM concentration and examined for cytokine expression after 2 or 8 days. For classical activation of microglia, the expression of iNOS, beside TNFα and IL-1β was analyzed (see FIG. 2).
The alternative microglial activation markers (M2) in mixed glial cultures exposed to Aβ with and without CHF5074 for 2 days or 8 days were also investigated (see FIG. 3).

[8] = stated after the mice and rats data; cited from earlier work
[9] = mice, cited from earlier work
dendritic spine density = settings: mice; cited from earlier work
AD patients = settings: cited from earlier work

In the case of `O=C(O)C1(c2ccc(-c3ccc(Cl)c(Cl)c3)c(F)c2)CC1` [CHF 5074, 1-(3′,4′-dichloro-2-fluorobiphenyl-4-yl)cyclopropanecarboxylic acid], the “expression profile of several NICD-responsive genes” value (NICD-responsive genes) is given as “does not alter”, the oral absorption [1] is given as 50% and the “TNFα level in cerebrospinal fluid” value (TNFα) is given as “reduce TNFα level”. For the same compound, the tolerability ([2]; 60 mg/kg/day, prolonged treatment for 4-9 months) was “well tolerated”, the “neuropathological and behavioral activity” value ([2]; oral doses of 60 mg/kg/day) was “active” and the “effects on Notch intracellular cleavage” value [3] was “no effects were observed”. For the same compound, the oral absorption ([4]; oral route) was 80-100%, the “plasma elimination t1/2” value [4] was “≈ 24 hours” and the “inhibitory activity on COX-1” value (COX-1) was “does not display inhibitory activity”. The IC50 [5] was 3.6 µM, the “plasma elimination half-life t1/2” value ([6]; after oral administration) was “≈ 30 hours” and the brain penetration [6] was 3-9%. The “inhibitory activity on COX-2” value (COX-2) was “does not display inhibitory activity”, the ARG1 expression ([7]; 3 μM with 10 μM Aβ1-42, 2 days) was “no change” and the “IL-1β mRNA expression” value ([7]; 3 μM with 10 μM Aβ1-42, 2 days) was “significantly decreased”. The “TNFα mRNA expression” value ([7]; 3 μM with 10 μM Aβ1-42, 2 days) was “significantly decreased”, the “iNOS mRNA expression” value ([7]; 3 μM with 10 μM Aβ1-42, 2 days) was “significantly decreased” and the “increase of TREM2 mRNA over the basal value” ([7]; 3 μM with 10 μM Aβ1-42, 2 days) was about 60%. For the same compound, the “MRC1 mRNA level” value ([7]; 3 μM with 10 μM Aβ1-42, 2 days, Aβ alone reduced MRC1 to about 50% of basal) was “near a three-fold increase”, the “M2 mRNAs (MRC1, TREM2 and ARG1) expression” value ([7]; 3 μM with 10 μM Aβ1-42, 8 days) was “None of the tested M2 mRNAs (MRC1, TREM2 and ARG1) appeared modified” and the “TNFα, IL1β and iNOS (M1) expression levels” value ([7]; 3 μM with 10 μM Aβ1-42, 8 days) was “does not modify”. For the same compound, the “brain levels as % of the corresponding plasma concentrations” value [8] was 3-14%, the oral absorption ([9]; oral) was 74% and the “plasma elimination t1/2” value [9] was 12 h.

In the case of `CC(C)[C@H](O)C(=O)N[C@@H](C)C(=O)N[C@@H]1C(=O)N(C)CCc2ccccc21` [semagacestat], the dendritic spine density (dendritic spine density) is given as “decrease dendritic spine density”, the “cognition and ability to complete activities of daily living versus placebo” value (AD patients; interim analysis of two Phase 3 trials) is given as “worsened over time to a statistically significantly higher rate” and the “rate of skin cancer compared to placebo” value (AD patients; two 21-month Phase 3 trials, more than 2,600 AD patients) is given as “increased rate of skin cancer”.
